Where two headings read alike, the source gives them in different places.
What was measured:
5-HT2A receptor = target: T1, 5-HT2A receptor (Rattus norvegicus, UniProt P14842); experiment: cell-based
T1 construct: Eight strips of tissue (0.5 cm long) were cut. and were mounted in 10 ml organ baths; tissue Charles River Laboratories; host or cells: rat aorta strips, endothelium removed
Outline: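 Endothelium-denuded aortic strips from male Sprague Dawley rats held at 37° C in carbogen-aerated Krebs, pH 7.4, under 2 g resting tension. Contraction recorded as tension change, expressed as % of maximal 5-HT response; agonist EC50 from Parker–Waud fit, antagonist pKB/pA2 from concentration-ratios.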

[1] = target: T2, human D2s dopamine receptors (Homo sapiens, UniProt P14416); experiment: hD2S receptor radioligand binding ([3H]spiperone); settings: pKi reported on a scale of 1 through 5
T2 construct: expressed in transfected cells; host or cells: Chinese hamster ovary cells (membranes)
T2 sequence (P14416 1-414 isoform P14416-2): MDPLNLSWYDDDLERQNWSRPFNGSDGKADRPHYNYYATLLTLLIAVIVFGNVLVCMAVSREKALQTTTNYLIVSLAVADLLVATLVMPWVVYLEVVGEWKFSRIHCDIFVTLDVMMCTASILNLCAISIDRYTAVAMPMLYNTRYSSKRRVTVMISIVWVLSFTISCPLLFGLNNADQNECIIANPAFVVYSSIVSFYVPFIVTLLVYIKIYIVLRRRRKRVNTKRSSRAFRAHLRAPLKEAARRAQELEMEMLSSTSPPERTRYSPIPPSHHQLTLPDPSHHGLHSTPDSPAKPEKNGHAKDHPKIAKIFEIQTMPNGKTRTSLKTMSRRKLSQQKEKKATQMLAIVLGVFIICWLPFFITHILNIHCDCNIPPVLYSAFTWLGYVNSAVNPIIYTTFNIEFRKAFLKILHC
Outline: (§1)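 Test compounds compete with a single concentration of radioligand for receptor sites on tissue or membrane fractions under equilibrium incubation. Filtration separates displaced ligand, and nonspecific binding is set with a known receptor blocker.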

[2] = target: T3, human D2L dopamine receptors (Homo sapiens, UniProt P14416); experiment: hD2L receptor radioligand binding ([3H]spiperone)
T3 construct: expressed in transfected cells; host or cells: insect Sf9 cells (membranes)
T3 sequence (P14416 whole entry): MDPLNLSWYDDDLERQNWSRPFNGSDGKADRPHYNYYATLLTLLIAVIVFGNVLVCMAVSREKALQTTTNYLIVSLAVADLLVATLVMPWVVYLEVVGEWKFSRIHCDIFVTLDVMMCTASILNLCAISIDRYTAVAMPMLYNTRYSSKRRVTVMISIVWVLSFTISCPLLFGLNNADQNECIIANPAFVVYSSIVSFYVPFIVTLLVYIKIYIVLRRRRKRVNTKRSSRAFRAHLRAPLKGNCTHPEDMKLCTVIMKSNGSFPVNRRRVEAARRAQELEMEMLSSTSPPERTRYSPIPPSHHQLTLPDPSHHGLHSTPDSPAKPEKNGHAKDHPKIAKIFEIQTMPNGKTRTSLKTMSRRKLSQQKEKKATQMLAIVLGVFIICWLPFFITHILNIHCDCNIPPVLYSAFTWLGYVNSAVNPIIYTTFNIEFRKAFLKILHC
Procedure: (§2) Consistent with standard competition radioligand binding assays, the methodology was based on displacement of radioligand from tissues (or cell lines) bearing the receptor of interest (Cheng, Y. and Prusoff, W. H. (1973). Biochem. Pharmacol. 22, 3099-3108). The measurements were based on the binding of a single concentration of radiolabeled ligand in the presence of various concentrations of unlabeled ligand.
(§3) Tissues (or cellular plasma membrane fractions) were incubated in the presence of radioligand at equilibrium and in the presence of a range of concentrations of the test compounds (which were non-radiolabeled), and the displaced radioligand was separated from the membranes by filtration. Nonspecific binding was assessed by measuring displacement of the radioligand in the presence of a compound known to block binding of the radioligand to the receptor. Finally, the concentration-response relationship for radioligand displacement (corrected for non-specific binding) was used to assess binding of the test compound to the receptor.

human 5HT1A receptors = target: T4, human 5HT1A receptors (Homo sapiens, UniProt P08908); experiment: h5-HT1A receptor radioligand binding ([3H]8OH-DPAT); settings: pKi reported on a scale of 1 through 5
T4 construct: expressed in transfected cells; host or cells: Chinese hamster ovary cells (membranes)
T4 sequence (P08908 1-422): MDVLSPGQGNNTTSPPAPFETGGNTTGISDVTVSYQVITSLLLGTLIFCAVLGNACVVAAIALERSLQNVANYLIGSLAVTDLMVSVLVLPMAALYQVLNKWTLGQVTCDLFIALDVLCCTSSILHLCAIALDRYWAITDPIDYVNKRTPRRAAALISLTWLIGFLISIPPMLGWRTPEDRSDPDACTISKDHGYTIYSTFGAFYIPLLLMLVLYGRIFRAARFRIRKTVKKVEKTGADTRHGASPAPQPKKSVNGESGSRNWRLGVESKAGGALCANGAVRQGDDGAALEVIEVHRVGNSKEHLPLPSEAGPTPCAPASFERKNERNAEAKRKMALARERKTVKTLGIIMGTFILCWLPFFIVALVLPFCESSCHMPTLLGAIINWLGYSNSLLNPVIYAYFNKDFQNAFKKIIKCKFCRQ
Outline: as §1

human 5HT2C receptors = target: T5, human 5HT2C receptors (Homo sapiens, UniProt P28335); experiment: h5-HT2C receptor radioligand binding ([3H]Mesulergine); settings: pKi reported on a scale of 1 through 5
T5 construct: expressed in transfected cells; host or cells: human embryo kidney cells (membranes)
T5 sequence (P28335 33-458): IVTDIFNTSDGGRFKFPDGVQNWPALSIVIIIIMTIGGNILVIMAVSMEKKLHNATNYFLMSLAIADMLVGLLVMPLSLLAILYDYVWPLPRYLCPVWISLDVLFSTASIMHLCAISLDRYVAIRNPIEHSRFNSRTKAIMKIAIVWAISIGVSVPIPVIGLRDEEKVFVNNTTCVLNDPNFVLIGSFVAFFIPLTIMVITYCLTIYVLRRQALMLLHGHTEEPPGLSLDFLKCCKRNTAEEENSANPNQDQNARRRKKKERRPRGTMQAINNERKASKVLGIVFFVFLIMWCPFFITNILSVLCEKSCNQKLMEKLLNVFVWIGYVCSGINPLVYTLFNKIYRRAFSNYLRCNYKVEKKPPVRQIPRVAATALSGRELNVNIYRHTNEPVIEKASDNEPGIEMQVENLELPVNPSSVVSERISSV
Outline: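 Competition binding: membranes incubated to equilibrium with a single concentration of [3H]mesulergine and a range of unlabeled test compound concentrations, then filtered. Nonspecific binding defined with a known receptor blocker; displacement concentration-response, corrected for nonspecific binding, gave the affinity measure.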

human M3 receptors = target: T6, human M3 receptors (Homo sapiens, UniProt P20309); experiment: hM3 receptor radioligand binding ([3H]NMS)
T6 construct: expressed in transfected cells; host or cells: Chinese hamster ovary cells (membranes)
T6 sequence (P20309 whole entry): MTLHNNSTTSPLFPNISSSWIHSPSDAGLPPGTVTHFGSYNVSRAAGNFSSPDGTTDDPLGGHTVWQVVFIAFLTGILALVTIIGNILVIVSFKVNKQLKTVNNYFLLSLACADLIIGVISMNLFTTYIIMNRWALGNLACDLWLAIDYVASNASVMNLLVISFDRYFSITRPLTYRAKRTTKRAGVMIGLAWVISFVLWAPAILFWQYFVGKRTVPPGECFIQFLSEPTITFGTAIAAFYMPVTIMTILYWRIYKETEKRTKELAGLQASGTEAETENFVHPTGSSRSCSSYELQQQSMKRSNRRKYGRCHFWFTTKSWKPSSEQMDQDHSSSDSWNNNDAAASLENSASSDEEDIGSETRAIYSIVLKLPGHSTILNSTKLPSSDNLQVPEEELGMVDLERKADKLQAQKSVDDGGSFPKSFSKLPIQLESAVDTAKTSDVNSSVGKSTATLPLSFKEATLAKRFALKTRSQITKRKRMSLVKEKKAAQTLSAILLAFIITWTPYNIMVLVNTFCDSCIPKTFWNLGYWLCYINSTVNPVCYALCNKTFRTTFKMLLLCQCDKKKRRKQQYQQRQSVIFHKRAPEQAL
Procedure: as §2, §3

human H1 receptors = target: T7, human H1 receptors (Homo sapiens, UniProt P35367); experiment: hH1 receptor radioligand binding ([3H]Pyrilamine); settings: pKi reported on a scale of 1 through 5
T7 construct: expressed in transfected cells; host or cells: Chinese hamster ovary cells (membranes)
T7 sequence (P35367 whole entry): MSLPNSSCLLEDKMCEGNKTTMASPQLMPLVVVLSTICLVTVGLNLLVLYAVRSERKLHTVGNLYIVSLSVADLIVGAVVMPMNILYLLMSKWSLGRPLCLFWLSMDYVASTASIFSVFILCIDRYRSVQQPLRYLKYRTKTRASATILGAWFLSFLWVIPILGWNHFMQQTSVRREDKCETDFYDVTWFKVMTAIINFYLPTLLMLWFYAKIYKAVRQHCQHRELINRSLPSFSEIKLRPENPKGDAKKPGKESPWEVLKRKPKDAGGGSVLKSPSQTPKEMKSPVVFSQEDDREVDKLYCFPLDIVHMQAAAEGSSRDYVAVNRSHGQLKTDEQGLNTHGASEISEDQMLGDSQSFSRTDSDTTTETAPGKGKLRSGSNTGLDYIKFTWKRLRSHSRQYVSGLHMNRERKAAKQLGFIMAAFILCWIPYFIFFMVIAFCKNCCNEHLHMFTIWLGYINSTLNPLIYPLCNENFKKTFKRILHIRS
Outline: as §1

human 5HT7 receptors = target: T8, human 5HT7 receptors (Homo sapiens, UniProt P34969); experiment: h5-HT7 receptor radioligand binding ([3H]5-CT)
T8 construct: expressed in transfected cells; host or cells: Chinese hamster ovary cells (membranes)
T8 sequence (P34969 whole entry): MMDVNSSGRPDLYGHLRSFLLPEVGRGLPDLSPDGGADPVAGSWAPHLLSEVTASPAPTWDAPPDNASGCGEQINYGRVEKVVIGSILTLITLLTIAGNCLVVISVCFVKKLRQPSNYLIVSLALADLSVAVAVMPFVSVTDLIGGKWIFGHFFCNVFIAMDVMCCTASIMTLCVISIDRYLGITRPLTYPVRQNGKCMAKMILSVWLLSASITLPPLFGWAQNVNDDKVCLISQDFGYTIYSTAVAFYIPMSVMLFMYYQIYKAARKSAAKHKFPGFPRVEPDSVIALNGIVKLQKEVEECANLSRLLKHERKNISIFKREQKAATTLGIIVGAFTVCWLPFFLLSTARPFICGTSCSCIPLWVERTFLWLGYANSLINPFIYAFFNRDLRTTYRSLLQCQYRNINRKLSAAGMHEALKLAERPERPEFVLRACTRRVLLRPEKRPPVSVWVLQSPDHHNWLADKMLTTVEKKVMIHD
Procedure: as §2, §3

human M1 receptors = target: T9, human M1 receptors (Homo sapiens, UniProt P11229); experiment: hM1 receptor radioligand binding ([3H]NMS); settings: pKi reported on a scale of 1 through 5
T9 construct: expressed in transfected cells; host or cells: Chinese hamster ovary cells (membranes)
T9 sequence (P11229 1-460): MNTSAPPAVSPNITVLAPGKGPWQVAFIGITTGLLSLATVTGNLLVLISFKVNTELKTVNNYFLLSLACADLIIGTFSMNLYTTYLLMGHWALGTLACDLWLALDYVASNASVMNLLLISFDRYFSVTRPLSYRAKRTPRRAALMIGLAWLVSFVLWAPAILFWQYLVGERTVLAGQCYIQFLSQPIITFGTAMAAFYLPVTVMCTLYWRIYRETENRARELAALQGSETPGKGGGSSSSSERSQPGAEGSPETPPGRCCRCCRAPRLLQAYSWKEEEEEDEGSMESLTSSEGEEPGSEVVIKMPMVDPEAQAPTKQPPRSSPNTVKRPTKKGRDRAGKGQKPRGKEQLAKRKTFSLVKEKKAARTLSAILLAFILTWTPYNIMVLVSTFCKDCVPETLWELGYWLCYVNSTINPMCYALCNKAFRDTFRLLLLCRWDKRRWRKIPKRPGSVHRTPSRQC
Outline: as §1

[3] = read-out: 5HT2A (pKb) (converted)
[4] = pKi reported on a scale of 1 through 5, read-out: D2L (pKi) (converted)
[5] = pKi reported on a scale of 1 through 5, read-out: M3 (pKi) (converted)
[6] = pKi reported on a scale of 1 through 5, read-out: 5HT7 (pKi) (converted)

T1 sequence (P14842 whole entry): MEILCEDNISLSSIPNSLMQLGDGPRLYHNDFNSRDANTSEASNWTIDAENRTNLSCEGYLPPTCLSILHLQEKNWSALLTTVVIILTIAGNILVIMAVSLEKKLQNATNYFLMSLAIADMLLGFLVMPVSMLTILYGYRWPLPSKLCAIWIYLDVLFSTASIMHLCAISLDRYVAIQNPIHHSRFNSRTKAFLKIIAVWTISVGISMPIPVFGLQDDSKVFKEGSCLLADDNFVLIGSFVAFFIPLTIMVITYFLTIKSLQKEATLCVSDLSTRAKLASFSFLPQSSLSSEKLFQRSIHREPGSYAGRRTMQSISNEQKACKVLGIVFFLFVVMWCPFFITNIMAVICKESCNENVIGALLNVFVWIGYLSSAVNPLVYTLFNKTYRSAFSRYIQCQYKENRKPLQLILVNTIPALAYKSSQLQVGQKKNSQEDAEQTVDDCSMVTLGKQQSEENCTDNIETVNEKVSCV

Row | SMILES | Kb (5-HT2A receptor; [3]) | Ki [1] | Ki [2, 4] | Ki (human 5HT1A receptors) | Ki (human 5HT2C receptors) | Ki (human M3 receptors; [5]) | Ki (human H1 receptors) | Ki (human 5HT7 receptors; [6]) | Ki (human M1 receptors) | Kb (5-HT2A receptor) | Ki [2] | Ki (human M3 receptors) | Ki (human 5HT7 receptors) | Kb (5-HT2A receptor; pKb reported on a scale of 1 through 5, read-out: 5HT2A (pKb) (converted))
1 | O=C(C[C@H]1CN(C2=Nc3cc(Cl)ccc3Oc3ccccc32)CCN1)NCCO [FA, (S,E)-2-(4-(8-chlorodibenzo[b,f][1,4]oxazepin-11-yl)piperazin-2-yl)-N-(2-hydroxyethyl)acetamide] | 3.16 to 9.77 nM | 631 to 2450 nM | 631 to 2450 nM | 10 to 97.7 nM | 10 to 97.7 nM | > 10000 nM | 10 to 97.7 nM | 631 to 1550 nM | > 10000 nM |  |  |  |  | 
2 | O=C(C[C@H]1CN(C2=Nc3cc(Cl)ccc3Oc3ccccc32)CCN1)NCCOCCO [FN, (S,E)-2-(4-(8-chlorodibenzo[b,f][1,4]oxazepin-11-yl)piperazin-2-yl)-N-(2-(2-hydroxyethoxy)ethyl)acetamide] | 3.16 to 9.77 nM | 631 to 2450 nM | 631 to 2450 nM | 10 to 97.7 nM | 10 to 97.7 nM | > 10000 nM | 10 to 97.7 nM | 631 to 1550 nM | > 10000 nM |  |  |  |  | 
3 | CC(C)(CO)NC(=O)C[C@H]1CN(C2=Nc3cc(Cl)ccc3Oc3ccccc32)CCN1 [EY, (S,E)-2-(4-(8-chlorodibenzo[b,f][1,4]oxazepin-11-yl)piperazin-2-yl)-N-(1-hydroxy-2-methylpropan-2-yl)acetamide] | 3.16 to 9.77 nM | 631 to 2450 nM | 631 to 2450 nM | 10 to 97.7 nM | 10 to 97.7 nM | > 10000 nM | 10 to 97.7 nM | 631 to 1550 nM | > 10000 nM |  |  |  |  | 
4 | O=C(C[C@H]1CN(C2=Nc3cc(Cl)ccc3Oc3ccccc32)CCN1)O[C@H]1CN2CCC1CC2 [DT, (R)-quinuclidin-3-yl 2-((S)-4-((E)-8-chlorodibenzo[b,f][1,4]oxazepin-11-yl)piperazin-2-yl)acetate] |  | > 10000 nM |  | 100 to 977 nM | 100 to 977 nM |  | 1000 to 9770 nM |  | 5010 to 9770 nM | > 100 nM | > 10000 nM | > 10000 nM | > 10000 nM | 
5 | COC(=O)C[C@H]1CN(C2=Nc3cc(Cl)ccc3Oc3ccccc32)CCN1C [DW, (S,E)-methyl 2-(4-(8-chlorodibenzo[b,f][1,4]oxazepin-11-yl)-1-methylpiperazin-2-yl)acetate] | 31.6 to 97.7 nM | > 10000 nM | 2510 to 9770 nM | 1000 to 9770 nM | 100 to 977 nM | > 10000 nM | 100 to 977 nM | 3980 to 9770 nM | ≤ 1230 nM |  |  |  |  | 
6 | O=C(C[C@H]1CN(C2=Nc3cc(Cl)ccc3Oc3ccccc32)CCN1)O[C@@H]1CN2CCC1CC2 [DU, (S)-quinuclidin-3-yl 2-((S)-4-((E)-8-chlorodibenzo[b,f][1,4]oxazepin-11-yl)piperazin-2-yl)acetate] |  | 2510 to 9770 nM |  | 10 to 97.7 nM | 100 to 977 nM |  | 100 to 977 nM |  | 5010 to 9770 nM | > 100 nM | 2510 to 9770 nM | > 10000 nM | 3980 to 9770 nM | 
7 | COc1ccc(NC(=O)C[C@H]2CN(C3=Nc4cc(Cl)ccc4Oc4ccccc43)CCN2)cn1 [FP, (S,E)-2-(4-(8-chlorodibenzo[b,f][1,4]oxazepin-11-yl)piperazin-2-yl)-N-(6-methoxypyridin-3-yl)acetamide] | 10 to 30.9 nM | 631 to 2450 nM | 631 to 2450 nM | ≤ 9.77 nM | 10 to 97.7 nM | > 10000 nM | 10 to 97.7 nM | 1580 to 3890 nM | 5010 to 9770 nM |  |  |  |  | 
8 | COC(=O)CC1CN(C2=Nc3cc(C(F)(F)F)ccc3Oc3ccccc32)CCN1 (stereo not drawn) [DQ, (E)-methyl 2-(4-(8-(trifluoromethyl)dibenzo[b,f][1,4]oxazepin-11-yl)piperazin-2-yl)acetate] |  | 2510 to 9770 nM | 2510 to 9770 nM | 100 to 977 nM | 100 to 977 nM | > 10000 nM | 1000 to 9770 nM | 3980 to 9770 nM | > 10000 nM |  |  |  |  | > 100 nM
9 | O=C(C[C@H]1CN(C2=Nc3cc(Cl)ccc3Oc3ccccc32)CCN1)NC[C@@H]1CCCO1 [FR, 2-((S)-4-((E)-8-chlorodibenzo[b,f][1,4]oxazepin-11-yl)piperazin-2-yl)-N-(((S)-tetrahydrofuran-2-yl)methyl)acetamide] | 3.16 to 9.77 nM | 158 to 617 nM | 158 to 617 nM | 10 to 97.7 nM | 10 to 97.7 nM | > 10000 nM | 10 to 97.7 nM | 631 to 1550 nM | > 10000 nM |  |  |  |  | 
10 | C[C@H](CC(C)(C)O)OC(=O)C[C@H]1CN(C2=Nc3cc(Cl)ccc3Oc3ccccc32)CCN1 [Compound ED, (R)-4-hydroxy-4-methylpentan-2-yl 2-((S)-4-((E)-8-chlorodibenzo[b,f][1,4]oxazepin-11-yl)piperazin-2-yl)acetate] | 3.16 to 9.77 nM | 631 to 2450 nM | 631 to 2450 nM | 10 to 97.7 nM | < 9.77 nM | > 10000 nM | 10 to 97.7 nM | 631 to 1550 nM | 5010 to 9770 nM |  |  |  |  | 
11 | O=C(C[C@H]1CN(C2=Nc3cc(Cl)ccc3Oc3ccccc32)CCN1)N1CCOCC1 [GG, (S,E)-2-(4-(8-chlorodibenzo[b,f][1,4]oxazepin-11-yl)piperazin-2-yl)-1-morpholinoethanone] | 3.16 to 9.77 nM | 2510 to 9770 nM | 2510 to 9770 nM | 10 to 97.7 nM | 10 to 97.7 nM | 7940 to 9770 nM | ≤ 9.77 nM | 631 to 1550 nM | 1260 to 2450 nM |  |  |  |  | 

Reference: patent US20120178738A1, “DIBENZO [B,F] [1,4]OXAZAPINE COMPOUNDS” (ARYX THERAPEUTICS, INC., priority 2007, published 2012)
